Measurements: PubChem BioAssay (NCI)
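GI50 = concentration required for 50% inhibition of growth. At the TGI there is no net growth.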

Tests used:
Assay in all cases: NCI tumour cell line growth inhibition, 384-well format; in the data active = GI50 below about 0.43 µM; inactive = the rest
NCI-H23 lung = tested on: NCI-H23 lung
NCI-H322M lung = tested on: NCI-H322M lung
NCI-H460 NSCLC = tested on: NCI-H460 NSCLC
NCI-H522 lung = tested on: NCI-H522 lung
NCI/ADR-RES ovarian = tested on: NCI/ADR-RES ovarian
OVCAR-3 ovarian = tested on: OVCAR-3 ovarian
OVCAR-4 ovarian = tested on: OVCAR-4 ovarian
OVCAR-5 ovarian = tested on: OVCAR-5 ovarian
OVCAR-8 ovarian = tested on: OVCAR-8 ovarian
PC-3 prostate = tested on: PC-3 prostate
RPMI-8226 leukemia = tested on: RPMI-8226 leukemia
RXF 393 renal = tested on: RXF 393 renal
SF-268 CNS = tested on: SF-268 CNS
SF-295 CNS = tested on: SF-295 CNS
SF-539 CNS = tested on: SF-539 CNS
SK-MEL-28 melanoma = tested on: SK-MEL-28 melanoma
SK-MEL-5 melanoma = tested on: SK-MEL-5 melanoma
SK-OV-3 ovarian = tested on: SK-OV-3 ovarian
SN12C renal = tested on: SN12C renal
SNB-19 CNS = tested on: SNB-19 CNS
SNB-75 CNS = tested on: SNB-75 CNS
SR leukemia = tested on: SR leukemia
SW-620 colon = tested on: SW-620 colon
T-47D breast = tested on: T-47D breast
TK-10 renal = tested on: TK-10 renal
U251 glioblastoma = tested on: U251 glioblastoma
UACC-257 melanoma = tested on: UACC-257 melanoma
UACC-62 melanoma = tested on: UACC-62 melanoma
UO-31 renal = tested on: UO-31 renal

CNC(=O)c1c(C)oc2cc(Oc3ncnc4cc(OC)c(OC)cc34)ccc12
inactive: GI50 (NCI-H23 lung) > 100 µM | GI50 (NCI-H322M lung) > 100 µM | GI50 (NCI-H460 NSCLC) > 100 µM | GI50 (NCI-H522 lung) > 100 µM | GI50 (NCI/ADR-RES ovarian) > 100 µM | GI50 (OVCAR-3 ovarian) > 100 µM | GI50 (OVCAR-4 ovarian) > 100 µM | GI50 (OVCAR-5 ovarian) > 100 µM | GI50 (OVCAR-8 ovarian) > 100 µM | GI50 (PC-3 prostate) > 100 µM | GI50 (RPMI-8226 leukemia) > 71.1 µM | GI50 (RXF 393 renal) > 21.9 µM | GI50 (SF-268 CNS) > 100 µM | GI50 (SF-295 CNS) > 100 µM | GI50 (SF-539 CNS) 10.2 µM | GI50 (SK-MEL-28 melanoma) > 100 µM | GI50 (SK-MEL-5 melanoma) > 100 µM | GI50 (SK-OV-3 ovarian) > 100 µM | GI50 (SN12C renal) > 100 µM | GI50 (SNB-19 CNS) > 100 µM | GI50 (SNB-75 CNS) 4.3 µM | GI50 (SR leukemia) > 61.5 µM | GI50 (SW-620 colon) > 100 µM | GI50 (T-47D breast) > 100 µM | GI50 (TK-10 renal) > 100 µM | GI50 (U251 glioblastoma) > 100 µM | GI50 (UACC-257 melanoma) > 100 µM | GI50 (UACC-62 melanoma) > 100 µM | GI50 (UO-31 renal) > 96.2 µM
> 29.4 µM: TGI (SNB-75 CNS)
> 100 µM: TGI (NCI-H23 lung) | TGI (NCI-H322M lung) | TGI (NCI-H460 NSCLC) | TGI (NCI-H522 lung) | TGI (NCI/ADR-RES ovarian) | TGI (OVCAR-3 ovarian) | TGI (OVCAR-4 ovarian) | TGI (OVCAR-5 ovarian) | TGI (OVCAR-8 ovarian) | TGI (PC-3 prostate) | TGI (RPMI-8226 leukemia) | TGI (RXF 393 renal) | TGI (SF-268 CNS) | TGI (SF-295 CNS) | TGI (SF-539 CNS) | TGI (SK-MEL-28 melanoma) | TGI (SK-MEL-5 melanoma) | TGI (SK-OV-3 ovarian) | TGI (SN12C renal) | TGI (SNB-19 CNS) | TGI (SR leukemia) | TGI (SW-620 colon) | TGI (T-47D breast) | TGI (TK-10 renal) | TGI (U251 glioblastoma) | TGI (UACC-257 melanoma) | TGI (UACC-62 melanoma) | TGI (UO-31 renal)
